Measured values as given in the kinase profiling compilation of Christmann-Franck et al. (2016).

Legend:
Assay in all cases: KINOMEscan competition binding
Details in all cases: compound 10.0 µM
[1] = biological target: AURKC (human) (UniProt Q9UQB9)
[2] = biological target: BMPR1B (human) (UniProt O00238)
[3] = biological target: CAMK1D (human) (UniProt Q8IU85)
[4] = biological target: CAMK1G (human) (UniProt Q96NX5)
[5] = biological target: CAMK2B (human) (UniProt Q13554)
[6] = biological target: CAMK4 (human) (UniProt Q16566)
[7] = biological target: CDK15 (human) (UniProt Q96Q40)
[8] = biological target: CDK18 (human) (UniProt Q07002)
Chain of CDK18 (human) (Q07002 whole entry, looked up): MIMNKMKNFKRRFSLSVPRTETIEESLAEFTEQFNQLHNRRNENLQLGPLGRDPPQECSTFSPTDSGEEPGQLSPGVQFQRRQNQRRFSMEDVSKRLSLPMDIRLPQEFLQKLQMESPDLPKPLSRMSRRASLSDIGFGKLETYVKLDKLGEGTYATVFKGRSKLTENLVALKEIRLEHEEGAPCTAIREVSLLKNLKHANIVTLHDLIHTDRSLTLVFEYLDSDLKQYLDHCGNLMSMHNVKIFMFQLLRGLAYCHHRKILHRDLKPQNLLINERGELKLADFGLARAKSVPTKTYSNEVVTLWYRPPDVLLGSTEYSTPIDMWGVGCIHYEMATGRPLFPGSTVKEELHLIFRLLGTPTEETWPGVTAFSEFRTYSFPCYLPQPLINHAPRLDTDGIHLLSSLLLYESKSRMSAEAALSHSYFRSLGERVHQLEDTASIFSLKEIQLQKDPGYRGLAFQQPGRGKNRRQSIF

[9] = biological target: CDK9 (human) (UniProt P50750)
Chain of CDK9 (human) (P50750 whole entry, looked up): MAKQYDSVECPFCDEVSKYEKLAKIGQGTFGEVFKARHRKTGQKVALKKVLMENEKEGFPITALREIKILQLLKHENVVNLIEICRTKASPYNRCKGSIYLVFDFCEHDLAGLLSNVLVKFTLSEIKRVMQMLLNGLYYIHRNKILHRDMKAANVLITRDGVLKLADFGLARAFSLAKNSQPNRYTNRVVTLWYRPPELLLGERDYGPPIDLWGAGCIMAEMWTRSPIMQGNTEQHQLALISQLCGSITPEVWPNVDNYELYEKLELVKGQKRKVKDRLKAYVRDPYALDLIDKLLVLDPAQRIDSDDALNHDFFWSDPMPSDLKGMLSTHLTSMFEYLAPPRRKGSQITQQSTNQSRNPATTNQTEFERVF

[10] = biological target: CDKL1 (human) (UniProt Q00532)
Chain of CDKL1 (human) (Q00532 whole entry, looked up): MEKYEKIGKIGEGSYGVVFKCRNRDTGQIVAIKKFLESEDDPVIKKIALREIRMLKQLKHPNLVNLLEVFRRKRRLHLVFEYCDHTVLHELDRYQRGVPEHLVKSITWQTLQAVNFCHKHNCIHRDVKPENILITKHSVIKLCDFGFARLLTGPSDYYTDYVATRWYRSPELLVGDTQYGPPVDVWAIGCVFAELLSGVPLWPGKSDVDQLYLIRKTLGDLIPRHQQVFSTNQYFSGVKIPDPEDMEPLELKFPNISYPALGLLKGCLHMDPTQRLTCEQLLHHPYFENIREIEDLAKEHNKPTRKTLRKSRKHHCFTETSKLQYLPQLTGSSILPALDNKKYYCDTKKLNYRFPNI

[11] = biological target: CLK1 (human) (UniProt P49759)
[12] = biological target: CLK4 (human) (UniProt Q9HAZ1)
[13] = biological target: DCLK1 (human) (UniProt O15075)
[14] = biological target: FGR (human) (UniProt P09769)
Chain of FGR (human) (P09769 whole entry, looked up): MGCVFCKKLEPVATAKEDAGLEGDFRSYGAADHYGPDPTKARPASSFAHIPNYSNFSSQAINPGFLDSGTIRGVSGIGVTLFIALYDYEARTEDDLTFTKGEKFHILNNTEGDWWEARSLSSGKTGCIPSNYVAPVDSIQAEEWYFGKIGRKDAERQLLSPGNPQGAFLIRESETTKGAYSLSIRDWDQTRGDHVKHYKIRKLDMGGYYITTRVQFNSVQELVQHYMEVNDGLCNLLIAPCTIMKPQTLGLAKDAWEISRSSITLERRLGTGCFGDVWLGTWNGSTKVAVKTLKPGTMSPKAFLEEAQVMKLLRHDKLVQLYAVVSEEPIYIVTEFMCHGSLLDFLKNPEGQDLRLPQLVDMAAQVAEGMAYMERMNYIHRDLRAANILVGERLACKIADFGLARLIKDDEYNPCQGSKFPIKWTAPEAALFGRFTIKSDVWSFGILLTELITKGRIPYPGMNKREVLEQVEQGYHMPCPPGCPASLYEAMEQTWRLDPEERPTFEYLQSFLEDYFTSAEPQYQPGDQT

[15] = biological target: IGF1R (human) (UniProt P08069)
[16] = biological target: IKBKE (human) (UniProt Q14164)
[17] = biological target: JAK1 JH1 catalytic (human) (UniProt P23458)
Chain of JAK1 JH1 catalytic (human) (P23458 whole entry, looked up): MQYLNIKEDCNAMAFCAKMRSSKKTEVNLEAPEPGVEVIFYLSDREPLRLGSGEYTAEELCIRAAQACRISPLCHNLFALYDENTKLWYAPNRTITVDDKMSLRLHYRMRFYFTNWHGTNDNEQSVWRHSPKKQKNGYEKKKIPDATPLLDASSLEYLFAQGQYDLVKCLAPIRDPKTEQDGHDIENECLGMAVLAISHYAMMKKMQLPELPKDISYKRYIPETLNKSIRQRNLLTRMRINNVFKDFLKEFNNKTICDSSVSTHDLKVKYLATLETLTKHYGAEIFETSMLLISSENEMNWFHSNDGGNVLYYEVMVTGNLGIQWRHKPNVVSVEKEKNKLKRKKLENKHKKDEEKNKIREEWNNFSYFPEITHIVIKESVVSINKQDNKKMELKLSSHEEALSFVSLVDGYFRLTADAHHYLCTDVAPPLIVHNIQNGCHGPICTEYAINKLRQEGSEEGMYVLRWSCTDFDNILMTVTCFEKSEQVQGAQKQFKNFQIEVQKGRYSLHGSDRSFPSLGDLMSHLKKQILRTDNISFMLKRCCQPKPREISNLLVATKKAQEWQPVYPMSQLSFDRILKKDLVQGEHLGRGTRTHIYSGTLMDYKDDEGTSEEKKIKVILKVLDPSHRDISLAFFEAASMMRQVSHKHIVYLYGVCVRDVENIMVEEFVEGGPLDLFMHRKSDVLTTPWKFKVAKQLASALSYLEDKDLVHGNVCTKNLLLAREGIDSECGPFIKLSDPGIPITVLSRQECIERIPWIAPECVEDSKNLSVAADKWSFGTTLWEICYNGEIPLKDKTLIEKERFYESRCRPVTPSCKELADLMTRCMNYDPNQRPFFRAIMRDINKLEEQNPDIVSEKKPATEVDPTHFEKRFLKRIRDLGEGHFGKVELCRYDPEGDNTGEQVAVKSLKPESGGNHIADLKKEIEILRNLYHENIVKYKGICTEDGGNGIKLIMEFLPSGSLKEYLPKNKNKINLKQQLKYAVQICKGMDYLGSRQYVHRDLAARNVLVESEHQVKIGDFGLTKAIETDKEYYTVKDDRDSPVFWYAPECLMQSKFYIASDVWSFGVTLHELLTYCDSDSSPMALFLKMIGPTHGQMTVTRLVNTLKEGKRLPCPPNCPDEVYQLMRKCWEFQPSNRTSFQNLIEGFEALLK

[18] = biological target: MAP2K1 (human) (UniProt Q02750)
[19] = biological target: MAP3K7 (human) (UniProt O43318)
[20] = biological target: MARK2 (human) (UniProt Q7KZI7)
[21] = biological target: MINK1 (human) (UniProt Q8N4C8)
[22] = biological target: NEK4 (human) (UniProt P51957)
[23] = biological target: NEK5 (human) (UniProt Q6P3R8)
Chain of NEK5 (human) (Q6P3R8 whole entry, looked up): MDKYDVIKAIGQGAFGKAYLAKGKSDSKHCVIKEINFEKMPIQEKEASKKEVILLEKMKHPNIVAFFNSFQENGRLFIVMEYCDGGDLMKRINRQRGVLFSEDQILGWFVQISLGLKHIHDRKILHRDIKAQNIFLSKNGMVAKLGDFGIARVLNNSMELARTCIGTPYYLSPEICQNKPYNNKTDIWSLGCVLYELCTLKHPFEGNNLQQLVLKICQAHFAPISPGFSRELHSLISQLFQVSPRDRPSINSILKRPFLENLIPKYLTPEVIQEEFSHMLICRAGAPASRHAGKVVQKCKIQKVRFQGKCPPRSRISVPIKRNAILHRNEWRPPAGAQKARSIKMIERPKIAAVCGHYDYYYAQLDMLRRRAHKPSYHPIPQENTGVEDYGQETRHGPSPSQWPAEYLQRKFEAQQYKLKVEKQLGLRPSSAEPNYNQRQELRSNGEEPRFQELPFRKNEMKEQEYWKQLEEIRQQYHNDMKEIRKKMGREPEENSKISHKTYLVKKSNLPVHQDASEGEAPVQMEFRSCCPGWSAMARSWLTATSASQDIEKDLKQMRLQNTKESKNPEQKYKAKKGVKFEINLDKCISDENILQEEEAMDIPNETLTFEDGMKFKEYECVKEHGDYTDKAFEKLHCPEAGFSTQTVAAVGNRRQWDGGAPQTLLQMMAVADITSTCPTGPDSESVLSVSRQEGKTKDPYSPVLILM

[24] = biological target: PI4KB (human) (UniProt Q9UBF8)
[25] = biological target: PIM3 (human) (UniProt Q86V86)
[26] = biological target: PKMYT1 (human) (UniProt Q99640)
[27] = biological target: PLK4 (human) (UniProt O00444)
[28] = biological target: PRKD2 (human) (UniProt Q9BZL6)
Chain of PRKD2 (human) (Q9BZL6 whole entry, looked up): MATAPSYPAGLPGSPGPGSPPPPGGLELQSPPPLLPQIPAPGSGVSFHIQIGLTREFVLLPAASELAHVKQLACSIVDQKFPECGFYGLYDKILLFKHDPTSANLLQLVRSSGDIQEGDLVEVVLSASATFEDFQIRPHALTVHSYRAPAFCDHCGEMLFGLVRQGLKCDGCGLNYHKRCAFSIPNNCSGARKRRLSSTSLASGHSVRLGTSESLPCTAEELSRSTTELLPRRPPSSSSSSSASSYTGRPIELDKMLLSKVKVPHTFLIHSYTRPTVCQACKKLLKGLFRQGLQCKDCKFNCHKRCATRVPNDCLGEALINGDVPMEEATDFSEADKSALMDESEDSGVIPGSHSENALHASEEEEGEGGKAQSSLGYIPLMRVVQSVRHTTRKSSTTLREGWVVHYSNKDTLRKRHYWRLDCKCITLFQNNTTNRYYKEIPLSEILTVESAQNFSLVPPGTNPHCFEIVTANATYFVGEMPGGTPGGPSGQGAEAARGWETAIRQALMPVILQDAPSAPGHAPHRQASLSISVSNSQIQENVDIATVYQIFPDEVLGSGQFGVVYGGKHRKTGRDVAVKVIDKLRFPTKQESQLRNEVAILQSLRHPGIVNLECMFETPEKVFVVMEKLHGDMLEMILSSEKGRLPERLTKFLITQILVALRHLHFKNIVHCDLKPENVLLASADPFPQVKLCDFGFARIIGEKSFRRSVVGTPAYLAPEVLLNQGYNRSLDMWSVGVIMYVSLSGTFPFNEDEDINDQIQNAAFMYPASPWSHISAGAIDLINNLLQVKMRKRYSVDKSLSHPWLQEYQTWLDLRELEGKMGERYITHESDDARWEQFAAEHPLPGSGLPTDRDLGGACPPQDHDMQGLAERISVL

[29] = biological target: PTK2 (human) (UniProt Q05397)
[30] = biological target: RPS6KA6 KD1 (human) (UniProt Q9UK32)
[31] = biological target: RPS6KA6 KD2 (human) (UniProt Q9UK32)
[32] = biological target: SIK3 (human) (UniProt Q9Y2K2)
[33] = biological target: SLK (human) (UniProt Q9H2G2)
[34] = biological target: STK3 (human) (UniProt Q13188)
[35] = biological target: STK32C (human) (UniProt Q86UX6)
Chain of STK32C (human) (Q86UX6 whole entry, looked up): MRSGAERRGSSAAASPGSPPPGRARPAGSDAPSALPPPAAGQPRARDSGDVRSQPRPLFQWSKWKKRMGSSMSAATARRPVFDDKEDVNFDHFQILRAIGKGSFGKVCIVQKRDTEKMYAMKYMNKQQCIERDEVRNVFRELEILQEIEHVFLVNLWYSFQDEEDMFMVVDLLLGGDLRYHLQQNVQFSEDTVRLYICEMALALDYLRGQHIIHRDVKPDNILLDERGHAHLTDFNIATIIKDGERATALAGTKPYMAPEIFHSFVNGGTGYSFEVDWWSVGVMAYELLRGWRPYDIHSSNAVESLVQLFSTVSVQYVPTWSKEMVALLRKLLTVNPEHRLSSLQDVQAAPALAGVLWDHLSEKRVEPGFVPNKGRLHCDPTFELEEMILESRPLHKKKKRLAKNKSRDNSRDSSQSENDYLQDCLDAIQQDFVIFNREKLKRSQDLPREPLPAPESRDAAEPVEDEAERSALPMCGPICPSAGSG

[36] = biological target: TAOK2 (human) (UniProt Q9UL54)
[37] = biological target: TIE1 (human) (UniProt P35590)
[38] = biological target: TXK (human) (UniProt P42681)
[39] = biological target: TYK2 JH1 catalytic (human) (UniProt P29597)
[40] = biological target: ULK2 (human) (UniProt Q8IYT8)

SMILES | kinase still bound, per cent of control [1] [%] | kinase still bound, per cent of control [2] [%] | kinase still bound, per cent of control [3] [%] | kinase still bound, per cent of control [4] [%] | kinase still bound, per cent of control [5] [%] | kinase still bound, per cent of control [6] [%] | kinase still bound, per cent of control [7] [%] | kinase still bound, per cent of control [8] [%] | kinase still bound, per cent of control [9] [%] | kinase still bound, per cent of control [10] [%] | kinase still bound, per cent of control [11] [%] | kinase still bound, per cent of control [12] [%] | kinase still bound, per cent of control [13] [%] | kinase still bound, per cent of control [14] [%] | kinase still bound, per cent of control [15] [%] | kinase still bound, per cent of control [16] [%] | kinase still bound, per cent of control [17] [%] | kinase still bound, per cent of control [18] [%] | kinase still bound, per cent of control [19] [%] | kinase still bound, per cent of control [20] [%] | other results
C=CC(=O)Nc1ccc(C(=O)c2sc(Nc3ccc(N4CCN(C)CC4)cc3OC)nc2N)cc1 | 68 | 86 | 0.55 | 8.2 | 0 | 100 | 87 | 100 | 85 | 100 | 0.55 | 1.6 | 5.6 | 91 | 86 | 84 | 100 | 100 | 73 | 78 | kinase still bound, per cent of control [21]: 3.5%; kinase still bound, per cent of control [22]: 97%; kinase still bound, per cent of control [23]: 100%; kinase still bound, per cent of control [24]: 18%; kinase still bound, per cent of control [25]: 87%; kinase still bound, per cent of control [26]: 96%; kinase still bound, per cent of control [27]: 43%; kinase still bound, per cent of control [28]: 70%; kinase still bound, per cent of control [29]: 51%; kinase still bound, per cent of control [30]: 50%; kinase still bound, per cent of control [31]: 0.7%; kinase still bound, per cent of control [32]: 95%; kinase still bound, per cent of control [33]: 32%; kinase still bound, per cent of control [34]: 98%; kinase still bound, per cent of control [35]: 84%; kinase still bound, per cent of control [36]: 20%; kinase still bound, per cent of control [37]: 67%; kinase still bound, per cent of control [38]: 100%; kinase still bound, per cent of control [39]: 100%; kinase still bound, per cent of control [40]: 9.4%
N#Cc1cc(-c2ccnc(Nc3ccc(-n4cnc(-c5cccnc5)n4)cc3)n2)cc(N2CCOCC2)c1 | 40 | 28 | 87 | 48 | 37 | 100 | 55 | 43 | 2.1 | 34 | 2.5 | 7.2 | 100 | 54 | 51 | 37 | 59 | 50 | 15 | 73 | kinase still bound, per cent of control [21]: 31%; kinase still bound, per cent of control [22]: 100%; kinase still bound, per cent of control [23]: 1.4%; kinase still bound, per cent of control [24]: 100%; kinase still bound, per cent of control [25]: 78%; kinase still bound, per cent of control [26]: 65%; kinase still bound, per cent of control [27]: 22%; kinase still bound, per cent of control [28]: 93%; kinase still bound, per cent of control [29]: 77%; kinase still bound, per cent of control [30]: 60%; kinase still bound, per cent of control [31]: 88%; kinase still bound, per cent of control [32]: 100%; kinase still bound, per cent of control [33]: 10%; kinase still bound, per cent of control [34]: 100%; kinase still bound, per cent of control [35]: 89%; kinase still bound, per cent of control [36]: 37%; kinase still bound, per cent of control [37]: 30%; kinase still bound, per cent of control [38]: 60%; kinase still bound, per cent of control [39]: 0%; kinase still bound, per cent of control [40]: 90%
COc1cc2c(Nc3ccc(NC(=O)c4ccccc4)cc3)ncnc2cc1OCCCN1CCOCC1 | 23 | 26 | 62 | 66 | 78 | 100 | 68 | 75 | 100 | 81 | 100 | 100 | 73 | 19 | 100 | 62 | 100 | 0.1 | 49 | 81 | kinase still bound, per cent of control [21]: 33%; kinase still bound, per cent of control [22]: 57%; kinase still bound, per cent of control [23]: 100%; kinase still bound, per cent of control [24]: 100%; kinase still bound, per cent of control [25]: 100%; kinase still bound, per cent of control [26]: 89%; kinase still bound, per cent of control [27]: 2%; kinase still bound, per cent of control [28]: 100%; kinase still bound, per cent of control [29]: 62%; kinase still bound, per cent of control [30]: 68%; kinase still bound, per cent of control [31]: 71%; kinase still bound, per cent of control [32]: 100%; kinase still bound, per cent of control [33]: 0.95%; kinase still bound, per cent of control [34]: 100%; kinase still bound, per cent of control [35]: 100%; kinase still bound, per cent of control [36]: 94%; kinase still bound, per cent of control [37]: 27%; kinase still bound, per cent of control [38]: 99%; kinase still bound, per cent of control [39]: 84%; kinase still bound, per cent of control [40]: 91%
